“And” between values parts separate entries of the source, which are not always exact repeats. Equal values may be shown once.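 Assay format: 96-well plates, 48-hour exposure. GI50 marks 50% less growth.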 The source made the active and inactive calls. Cut-off read from the data, not from the text of the source: active = GI50 up to about 1.1 µM and inactive = higher. Where a SMILES comes first, the peptide text is derived from it. [ ]: non-standard residue; d: D form. The star is where a group is joined. Iva = CC[C](C)(N)C(=O)O; Boc = CC(C)(C)OC(=O)*; X54 = C1CCC(=NO*)C1
How the values were obtained:
Assay in all cases: NCI anticancer screen, dose series, 48 h
[1] = tested on: BT-549
[2] = tested on: DU-145
[3] = tested on: Hs-578T
[4] = tested on: MDA-MB-231
[5] = tested on: MDA-MB-435
[6] = tested on: MDA-N
[7] = tested on: T47D
[8] = tested on: RXF 631

Measured: GI50

CCC(C)(NC(=O)C(C)NC(=O)OC(C)(C)C)C(=O)NC(C)C(=O)NC(C)(CC)C(=O)ON=C1CCCC1 (stereo not drawn) (Boc-A[Iva]A[Iva]-X54; configuration not given here)
inactive: [1] > 100 µM | [2] > 100 µM | [3] > 100 µM | [4] > 100 µM | [5] > 100 µM | [6] > 100 µM | [7] > 100 µM

COc1ccc(-c2c3c(nc4nc(SCC(=O)c5ccc(Br)cc5)nc(N)c24)CCCC3)cc1OC
inactive: [1] 80 µM | [2] > 100 µM | [3] 15.3 µM | [4] 26.9 µM | [5] > 100 µM | [6] > 100 µM | [7] 73.6 µM

CCOC(=O)c1ccc(N2C(=O)/C(=C/c3ccc(N(CCC#N)CCC#N)cc3)N=C2c2cc([N+](=O)[O-])ccc2Cl)cc1
inactive: [8] > 100 µM

OCC(O)COc1ccc(Br)cc1 (stereo not drawn)
inactive: [8] > 100 µM

CCOC(=O)C1=C(C)N(C2OC(COC(C)=O)C(OC(C)=O)C(OC(C)=O)C2OC(C)=O)C(=O)NC1c1ccccc1 (stereo not drawn)
inactive: [8] > 100 µM

CC(Oc1ccc(Oc2cnc3ccc(Cl)cc3n2)cc1)C(=O)O (stereo not drawn)
inactive: [1] > 80.2 µM | [2] > 88.9 µM | [3] > 88.1 µM | [4] > 100 µM | [7] 92 µM and 64.4 µM

COc1cc(C(O)(CC#N)c2cc3c(cc2Br)OCO3)cc(OC)c1OC (stereo not drawn)
inactive: [1] > 100 µM | [2] 33.5 µM | [4] 21.4 µM | [5] 3 µM | [6] 5.07 µM | [7] > 100 µM
